Experimental data from US6489307B1, “Antisense compositions targeted to β1-adrenoceptor-specific mRNA and methods of use” (University of Florida, priority 1998, dated 2002).
Entries after “also recorded” stand apart in the source; their conditions may differ. Like-named read-outs stand apart in the source and are kept apart here.

Columns and labels:
SHRs = assay: Telemetric monitoring of conscious SHRs during dobutamine infusion; format: in vivo, rat (SHR)
Protocol: Two days after catherization of the jugular vein, control values were taken and 1 mg/kg β1-AS-ODN was injected. 48 hr later, rats were tested for the effect of β1-AS-ODN. The rats were allowed to recover until all the cardiovascular parameters returned to control values. […] For β1-stimulation, SHRs were infused with dobutamine (β1-selective agonist) through a jugular vein catheter at 5, 10, 20, and 40 μg·kg^−1·min.^−1. Each dose was given for 5 min. continuously and at 1-hr intervals until all the cardiovascular parameters returned to baseline values so as to avoid the effect of tachyphylaxis. BP and HR were sampled every 1 min. dP/dtmax was calculated from the slope of the rising pulse-pressure curve and determined every 1 min. The difference between values at each dose and baseline was denoted as Δ.
Two days after catheterization of jugular vein, control values were taken and 1 mg/kg β1-AS-ODN was injected. Forty-eight hr later, rats were tested for the effect of β1-AS-ODN. The rats were allowed to recover until all the cardiovascular parameters returned to control values. […] For β1-stimulation, SHR were infused with dobutamine (β1-selective agonist) through jugular vein catheter at 5, 10, 20, 40 μg/kg/min. Each dose was given for 5 min continuously and at 1-hr intervals until all cardiovascular parameters returned to baseline so as to avoid the effect of tachyphylaxis. BP and HR were sampled every min. dP/dtmax was calculated from the slope of the rising pulse pressure curve and determined every min. The difference between values at each dose and baseline was denoted as Δ.

β2-AR = assay: β-AR density in myocardium after ischemia-reperfusion (binding assay); parameters: species or system Sprague-Dawley rats; details: rat, in vivo
Protocol: Membrane protein was prepared from left ventricles as previously described (Baker and Pitha, 1982). For saturation studies, 100 μg membrane protein was incubated in triplicate with ^125I-(−)iodocyanopindolol (I-CYP, NEN Life Science, 6.25-100 pM) in a total volume of 250 μl containing 50 mM Tris-HCl (pH 7.4), 5 mM MgCl2 at 36° C. for 60 min. The nonspecific and β2-adrenoceptor binding were determined in the presence of 1 μM (±)-alprenolol and […] (RBI), respectively. Then the reaction mixture was passed through Whatman GF/B glass filter using Brandel harvester and the radioactivity was counted for one min.

[1] = tested on: isolated perfused SHR hearts; assay: Isolated perfused SHR hearts (Langendorff), response to isoproterenol; format: in vivo, rat (SHR); details: 48 hr after 1 mg/kg; vs inverted ODN
Protocol: 48 hr after injection of 1 mg/kg β1-AS-ODN (n=9) or inverted ODN (n=6), SHRs were anesthetized and killed. Hearts were quickly removed and perfused via the aorta with oxygenated Krebs buffer (118 mmol/L NaCl, 18.75 mmol/L NaHCO3 1.2 mmol/L KH2PO4, 4.7 mmol/L KCl, 1.2 mmol/L MgSO4, 1.25 mmol/L CaCl2, 11.1 mmol/L glucose, and 0.01 mmol/L EDTA) at a constant flow of 7.0 mL/min. at 36° C. Coronary perfusion pressure was measured via a catheter placed proximal to the aorta and connected to a pressure transducer (Gould Staham P23ID, Eastlake, Ohio). A latex balloon filled with water and connected to the pressure transducer was inserted into the left ventricle through the left atrium to measure left ventricular end-diastolic pressure (LVEDP), left ventricular systolic pressure (LVSP), and developed left ventricular pressure (dLVP) (dLVP=LVSP−LVEDP). LVEDP during equilibration was set at 5 to 7 mm Hg. Coronary perfusion pressure, LVEDP, and LVSP were recorded continuously on a 4-channel recorder (Astro-Med, West Warwick, R.I.). […]
Forty-eight hr after injection of 1 mg/kg β1-AS-ODN (n=9) or inverted-ODN (n=6), SHR were anesthetized and sacrificed. […] Coronary perfusion pressure (CPP) was measured via a catheter placed proximal to the aorta and connected to a pressure transducer (Gould Statham P23ID). […] CPP, LVEDP and LVSP were continuously recorded on a 4-channel recorder (Astro-Med). […]

PRA = tested on: PRA
Protocol: PRA was determined with an angiotensin I (^125I) radioimmunoassay kit (DuPont). Plasma Ang II levels were measured by radioimmunoassay as previously described (Phillips and Kimura, 1988).

5′-CCGCGCCCATGCCGA-3′ (phosphorothioate backbone, further chemistry not given here) [β1-AS-ODN]
basal (resting) HR (SHRs; 1 mg/kg, control 365±8): 365±12 bpm
basal dP/dtmax (SHRs; 1 mg/kg, control 2937±277): 2922±249 mm Hg/s
resting dP/dtmax (SHRs; 1 mg/kg, control 2937±277): 2922±249 mmHg/sec
change in HR in the face of dobutamine (SHRs; 48 hr after 1 mg/kg): not significantly reduced
increase in dP/dtmax in the face of dobutamine (SHRs; 48 hr after 1 mg/kg): significantly (P<0.02) dampened
β2-AR density in ischemic-reperfused myocardium (β2-AR): no change
HR response to ISO [1]: not significantly decreased
dLVP-ISO dose-response curve (positive inotropic effect of ISO) [1]: significantly shifted downward; also recorded: significantly shifted down
PRA (PRA; day 4): not on day 4
PRA (PRA; day 10 and day 18): significantly decreased
time after injection until decrease in PRA and Ang II occurred (PRA; single injection): ≈ 10 days
